Values belong to the compound of their own block, whether it stands above or below them.
Key:
DYRK2 = biological target: T1, DYRK2 (Homo sapiens, UniProt Q92630); assay: HTS ATP-utilizing enzyme assay, off-chip mobility-shift (Caliper HTS 250); format: biochemical; details: test compound 10 μM, kinase listed = active (greater than six-sigma from the mean activity of inactive compounds)
T1 sequence (Q92630 1-601): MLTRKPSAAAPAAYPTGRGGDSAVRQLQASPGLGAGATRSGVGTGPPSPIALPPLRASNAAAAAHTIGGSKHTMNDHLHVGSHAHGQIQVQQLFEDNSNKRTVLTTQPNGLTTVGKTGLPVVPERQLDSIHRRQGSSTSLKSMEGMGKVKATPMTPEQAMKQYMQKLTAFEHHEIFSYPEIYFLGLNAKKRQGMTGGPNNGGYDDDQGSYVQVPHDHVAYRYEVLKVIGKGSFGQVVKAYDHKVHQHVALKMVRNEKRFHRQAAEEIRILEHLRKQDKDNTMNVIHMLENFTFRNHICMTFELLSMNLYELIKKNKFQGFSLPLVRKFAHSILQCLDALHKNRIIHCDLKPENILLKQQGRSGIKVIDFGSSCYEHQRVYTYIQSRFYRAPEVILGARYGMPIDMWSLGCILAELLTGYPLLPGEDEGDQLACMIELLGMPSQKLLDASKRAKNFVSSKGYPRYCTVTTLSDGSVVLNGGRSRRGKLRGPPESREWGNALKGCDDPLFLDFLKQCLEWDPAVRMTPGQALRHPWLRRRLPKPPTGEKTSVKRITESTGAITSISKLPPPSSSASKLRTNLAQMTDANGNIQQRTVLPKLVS
Procedure, shortened: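 Test compound at 10 μM final was incubated with kinase and peptide substrate in HEPES pH 7.5 buffer with Triton X-100 and BSA for 2.5 hrs at 20° C. to 22° C., then stopped with EDTA. Inhibition came from the substrate-to-phosphorylated-product ratio on a microfluidic mobility-shift read. EDTA wells served as 100% control.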

MAPKAPK2 = MAPKAPK2 (Homo sapiens, UniProt P49137); assay: as above; format: biochemical; details: test compound 10 μM, kinase listed = active (greater than six-sigma from the mean activity of inactive compounds)
MAPKAPK2, sequence (P49137 whole entry): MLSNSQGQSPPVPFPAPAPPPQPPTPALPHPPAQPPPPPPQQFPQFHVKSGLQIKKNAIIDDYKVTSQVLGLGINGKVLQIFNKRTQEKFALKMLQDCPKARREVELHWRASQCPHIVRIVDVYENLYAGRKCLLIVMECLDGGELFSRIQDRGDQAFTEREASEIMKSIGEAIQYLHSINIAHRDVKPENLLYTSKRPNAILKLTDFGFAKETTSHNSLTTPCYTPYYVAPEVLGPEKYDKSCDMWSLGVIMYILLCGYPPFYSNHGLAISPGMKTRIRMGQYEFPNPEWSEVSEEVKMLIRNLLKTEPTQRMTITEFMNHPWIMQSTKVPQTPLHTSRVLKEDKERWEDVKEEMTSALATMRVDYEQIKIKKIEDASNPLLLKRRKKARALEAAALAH
Procedure, shortened: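 Single-point screen of test compound at 10 μM against MAPKAPK2 with peptide substrate in HEPES pH 7.5 buffer (Triton X-100, BSA), 2.5 h at 20-22 °C. Substrate-to-phosphopeptide ratio was read by off-chip microfluidic mobility shift; EDTA and DMSO wells defined 100% and 0% controls, hits by six-sigma limits.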

Structure (SMILES): CN1CCN(c2ccc(Nc3ccnc4ccc(-c5ccc(O)cc5)cc34)cc2)CC1 [4-(4-(4-(4-methylpiperazin-1-yl)phenylamino)quinolin-6-yl)phenol]
Activity (DYRK2): DYRK2 | Activity (MAPKAPK2): MAPKAPK2

Structure (SMILES): CN1CCN(c2ccc(Nc3ccnc4ccc(-c5ccc(F)cc5)cc34)cc2)CC1 [6-(4-fluorophenyl)-N-(4-(4-methylpiperazin-1-yl)phenyl)quinolin-4-amine]
Activity (DYRK2): DYRK2 | Activity (MAPKAPK2): MAPKAPK2

Structure (SMILES): COc1ccc(-c2ccc3nccc(Nc4ccc(N5CCNCC5)cc4)c3c2)cc1 [6-(4-methoxyphenyl)-N-(4-(piperazin-1-yl)phenyl)quinolin-4-amine]
Activity (DYRK2): DYRK2 | Activity (MAPKAPK2): MAPKAPK2

Structure (SMILES): COc1ccc(-c2ccc3nccc(N(C)c4ccc(N5CCN(C)CC5)cc4)c3c2)cc1 [6-(4-methoxyphenyl)-N-methyl-N-(4-(4-methylpiperazin-1-yl)phenyl)quinolin-4-amine]
Activity (DYRK2): DYRK2 | Activity (MAPKAPK2): MAPKAPK2

Structure (SMILES): c1ccc(-c2ccc3nccc(Nc4ccc(N5CCNCC5)cc4)c3c2)cc1 [6-phenyl-N-(4-(piperazin-1-yl)phenyl)quinolin-4-amine]
Activity (MAPKAPK2): MAPKAPK2

Structure (SMILES): CN1CCN(c2ccc(Nc3ccnc4ccc(-c5cccc6ccccc56)cc34)cc2)CC1 [N-(4-(4-methylpiperazin-1-yl)phenyl)-6-(naphthalen-1-yl)quinolin-4-amine]
Activity (MAPKAPK2): MAPKAPK2

Further lines, results first:

Activity (DYRK2): DYRK2 | Activity (MAPKAPK2): MAPKAPK2
Structure (SMILES): CN1CCN(c2ccc(Nc3ccnc4ccc(-c5ccc6ccccc6c5)cc34)cc2)CC1 [N-(4-(4-methylpiperazin-1-yl)phenyl)-6-(naphthalen-2-yl)quinolin-4-amine]

Activity (DYRK2): DYRK2
Structure (SMILES): CN1CCN(c2ccc(Nc3ccnc4ccc(-c5ccncc5)cc34)cc2)CC1 [N-(4-(4-methylpiperazin-1-yl)phenyl)-6-(pyridin-4-yl)quinolin-4-amine]

Activity (DYRK2): DYRK2 | Activity (MAPKAPK2): MAPKAPK2
Structure (SMILES): Cc1ccccc1-c1ccc2nccc(Nc3ccc(N4CCN(C)CC4)cc3)c2c1 [N-(4-(4-methylpiperazin-1-yl)phenyl)-6-o-tolylquinolin-4-amine]
